Data as given in patent US11667651B2, “Aminopyridine derivatives as phosphatidylinositol phosphate kinase inhibitors” (HiberCell, Inc., priority 2017, dated 2023).

What was measured:
Format in all cases: biochemical
[1] = molecular target: T1, PIP4K2A (Homo sapiens, UniProt P48426); test: Kinase Assay PIP4K2 A (Table 2); set-up: 4 nM PIP4K2A (full length protein, SignalChem); purchased SignalChem; details: compounds listed under IC50 bins
T1 sequence (P48426 1-406): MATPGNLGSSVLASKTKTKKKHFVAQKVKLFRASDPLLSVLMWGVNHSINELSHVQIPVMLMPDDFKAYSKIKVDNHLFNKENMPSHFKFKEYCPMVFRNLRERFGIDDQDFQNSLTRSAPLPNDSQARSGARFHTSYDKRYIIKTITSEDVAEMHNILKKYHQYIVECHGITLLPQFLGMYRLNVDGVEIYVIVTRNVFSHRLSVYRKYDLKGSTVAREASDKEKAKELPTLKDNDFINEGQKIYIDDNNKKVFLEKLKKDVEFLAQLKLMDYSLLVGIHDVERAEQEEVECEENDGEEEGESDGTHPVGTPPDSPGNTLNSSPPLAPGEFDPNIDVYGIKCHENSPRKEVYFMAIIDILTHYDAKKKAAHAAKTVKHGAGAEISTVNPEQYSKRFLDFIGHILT
Summary of the method: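 Full-length PIP4K2A (4 nM in the added mix, with 100 μM PI(5)P diC8) pre-incubated 15 min at RT with compounds (10-point, 3-fold series) in 20 mM MOPS pH 7.2, 25 mM MgCl2, 0.005% Tween 20. ATP added from a 60 μM solution, 1 h at RT; ADP-Glo luminescence, IC50 fitted from % inhibition versus DMSO.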

[2] = molecular target: T2, PIP4K2B (Homo sapiens, UniProt P78356); test: Trans-FI P kinase assay PIP4K2B (Table 4); details: compounds listed under IC50 bins; read-out: Trans-FI P kinase assays: PIP4K2B IC50
T2 construct: made in house; host or cells: E. coli
T2 sequence (P78356 1-416): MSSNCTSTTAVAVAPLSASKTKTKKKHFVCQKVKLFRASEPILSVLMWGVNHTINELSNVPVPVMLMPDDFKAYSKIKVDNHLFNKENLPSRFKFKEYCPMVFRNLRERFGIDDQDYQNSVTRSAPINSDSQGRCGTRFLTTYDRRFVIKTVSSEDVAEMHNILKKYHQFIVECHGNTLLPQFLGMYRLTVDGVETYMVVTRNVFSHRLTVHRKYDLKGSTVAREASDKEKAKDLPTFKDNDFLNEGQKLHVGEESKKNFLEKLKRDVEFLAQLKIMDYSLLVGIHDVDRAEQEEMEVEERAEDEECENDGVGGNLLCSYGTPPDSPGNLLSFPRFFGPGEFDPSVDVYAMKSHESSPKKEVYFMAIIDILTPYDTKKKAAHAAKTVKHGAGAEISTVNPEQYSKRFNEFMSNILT
Summary of the method: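 Transcreener FI detection (Ex 584/Em 623) of GDP, converted via calibration curve, gives IC50 from residual activity versus log concentration (highest 4.8 μM). Reaction: 80 μM PI5P plus DOPE carrier, 100 μM GTP, 5 nM GST-tagged enzyme, pH 7.3 HEPES with MgCl2 and 5% DMSO, 2 h after 1 h enzyme-compound preincubation at 27° C.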

[3] = molecular target: T1, PIP4K2A; test: ADP-glo kinase assay PIP4K 2A (Table 3); set-up: made in house; host or cells: E. coli; details: compounds listed under IC50 bins
Summary of the method: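 Full-length PIP4K2A (4 nM in the mix) with 100 μM PI(5)P diC8 pre-incubated 15 min with compound in MOPS pH 7.2, 25 mM MgCl2; ATP added (60 μM solution), 1 h at RT. ADP formed read by ADP-Glo luminescence; 10-point curves versus DMSO controls fitted to IC50.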

| Structure (SMILES) | IC50 [1] [nM] | IC50 [2] [nM] | IC50 [3] [nM] |
| --- | --- | --- | --- |
| CN(C)C(=O)c1ccc(-c2ccc(Nc3ccc(N4CCOCC4)nc3)nc2)cc1 [Example 60, N,N-dimethyl-4-(6-((6-morpholinopyridin-3-yl)amino)pyridin-3-yl)benzamide] | > 1000 | > 1000 | > 1000 |
| CN(C)C(=O)c1ccc(-c2ccc(Nc3cncc(NC(=O)CCc4cccc(NC(=O)OC(C)(C)C)c4)c3)nc2)cc1 [Example 101, tert-butyl (3-(3-((5-((5-(4-(dimethylcarbamoyl)phenyl)pyridin-2-yl)amino)pyridin-3-yl)amino)-3-oxopropyl)phenyl)carbamate] | 10 to 100 | 10 to 100 | 100 to 1000 |
| CN(C)C(=O)c1ccc(-c2ccc(Nc3cncc(N4CCN(Cc5ccc(N)cc5)C4=O)c3)nc2)cc1 [Example 222, 4-(6-((5-(3-(4-aminobenzyl)-2-oxoimidazolidin-1-yl)pyridin-3-yl)amino)pyridin-3-yl)-N,N-dimethylbenzamide] | ≤ 1 | 10 to 100 | 1 to 10 |
| CN(C)C(=O)c1ccc(-c2ccc(Nc3cnc4c(c3)OCO4)nc2)cc1 [Example 62, 4-(6-([1,3]dioxolo[4,5-b]pyridin-6-ylamino)pyridin-3-yl)-N,N-dimethylbenzamide] | 100 to 1000 | > 1000 | 100 to 1000 |
| C[C@@H](c1ccccc1)N1CCN(c2cncc(Nc3ccc(-c4ccc(C(=O)N(C)C)cc4)cn3)c2)C1=O [Example 80, (S)—N,N-dimethyl-4-(6-((5-(2-oxo-3-(1-phenylethyl)imidazolidin-1-yl)pyridin-3-yl)amino)pyridin-3-yl)benzamide] | 10 to 100 | 10 to 100 | 10 to 100 |
| CN(C)C(=O)c1ccc(-c2ccc(Nc3cnc4c(c3)CCCO4)nc2)cc1 [Example 58, 4-(6-((3,4-dihydro-2H-pyrano[2,3-b]pyridin-6-yl)amino)pyridin-3-yl)-N,N-dimethylbenzamide] | 10 to 100 | 10 to 100 | 100 to 1000 |
| COc1cc(Nc2cnc3c(c2)N2C(=O)CC[C@H]2CO3)ncc1-c1ccc(N2CCCC2=O)c(F)c1 [Example 183, (S)-2-((5-(3-fluoro-4-(2-oxopyrrolidin-1-yl)phenyl)-4-methoxypyridin-2-yl)amino)-6,6a,7,8-tetrahydro-9H-pyrido[2,3-b]pyrrolo[1,2-d][1,4]oxazin-9-one] | ≤ 1 | 10 to 100 | 1 to 10 |
| CN(C)C(=O)c1ccc(-c2ccc(Nc3cnc4c(c3)N(C(=O)c3ccccn3)CCO4)nc2)cc1 [Example 95, N,N-dimethyl-4-(6-((1-picolinoyl-2,3-dihydro-1H-pyrido[2,3-b][1,4]oxazin-7-yl)amino)pyridin-3-yl)benzamide] | 10 to 100 | 10 to 100 | 10 to 100 |
| CN(C)C(=O)c1ccc(-c2ccc(Nc3cncc(N4CCN(Cc5cccc(N)c5)C4=O)c3)nc2)cc1 [Example 223, 4-(6-((5-(3-(3-aminobenzyl)-2-oxoimidazolidin-1-yl)pyridin-3-yl)amino)pyridin-3-yl)-N,N-dimethylbenzamide] | ≤ 1 | 10 to 100 | 1 to 10 |
| CN(C)C(=O)c1ccc(-c2ccc(Nc3cncc(N4CCN(Cc5cccc(NC(=O)CCc6cccc(N)c6)c5)C4=O)c3)nc2)cc1 [Example 224, 4-(6-((5-(3-(3-(3-(3-aminophenyl)propanamido)benzyl)-2-oxoimidazolidin-1-yl)pyridin-3-yl)amino)pyridin-3-yl)-N,N-dimethylbenzamide] | 1 to 10 | 10 to 100 | 1 to 10 |
| CN(C)C(=O)c1ccc(-c2ccc(Nc3cncc(NC(=O)c4ccc5ncoc5c4)c3)nc2)cc1 [Example 136, N-(5-((5-(4-(dimethylcarbamoyl)phenyl)pyridin-2-yl)amino)pyridin-3-yl)benzo[d]oxazole-6-carboxamide] | 10 to 100 | 10 to 100 | 10 to 100 |
| CN(C)C(=O)c1ccc(-c2ccc(Nc3cncc(NC(=O)c4ccccc4)c3)nc2)cc1 [Example 121, 4-(6-((5-benzamidopyridin-3-yl)amino)pyridin-3-yl)-N,N-dimethylbenzamide] | 10 to 100 | 10 to 100 | 10 to 100 |
| CN(C)C(=O)c1ccc(-c2ccc(Nc3cncc(OC(F)F)c3)nc2)cc1 [Example 49, 4-(6-((5-(difluoromethoxy)pyridin-3-yl)amino)pyridin-3-yl)-N,N-dimethylbenzamide] | 100 to 1000 | > 1000 | 100 to 1000 |
| O=C1CCCN1c1ccc(-c2cnc(Nc3cncc(N4CCN(Cc5cscn5)C4=O)c3)cn2)cc1 [Example 164, 1-(5-((5-(4-(2-oxopyrrolidin-1-yl)phenyl)pyrazin-2-yl)amino)pyridin-3-yl)-3-(thiazol-4-ylmethyl)imidazolidin-2-one] | 1 to 10 | 10 to 100 | 1 to 10 |
| CN1CCN(c2cncc(Nc3ccc(-c4ccc(N5CCCC5=O)cc4)cn3)c2)S1(=O)=O [Example 174, 1-(4-(6-((5-(5-methyl-1,1-dioxido-1,2,5-thiadiazolidin-2-yl)pyridin-3-yl)amino)pyridin-3-yl)phenyl)pyrrolidin-2-one] | 1 to 10 | 10 to 100 | 10 to 100 |
| COc1ncc(Nc2ccc(-c3ccc(N4CCCC4=O)cc3)cn2)cc1N(C)S(C)(=O)=O [Example 161, N-(2-methoxy-5-((5-(4-(2-oxopyrrolidin-1-yl)phenyl)pyridin-2-yl)amino)pyridin-3-yl)-N-methylmethanesulfonamide] | 100 to 1000 | 10 to 100 | 100 to 1000 |
| CN(C)C(=O)c1ccc(-c2ccc(Nc3cnc4c(c3)N3C(=O)CC[C@H]3CO4)nc2)cc1 [Example 242, (S)-N,N-dimethyl-4-(6-((9-oxo-6a,7,8,9-tetrahydro-6H-pyrido[2,3-b]pyrrolo[1,2-d][1,4]oxazin-2-yl)amino)pyridin-3-yl)benzamide] | 1 to 10 | 10 to 100 | 1 to 10 |
| CN(C)C(=O)c1cnc(-c2ccc(Nc3cccnc3)nc2)nc1 [Example 29, N,N-dimethyl-2-(6-(pyridin-3-ylamino)pyridin-3-yl)pyrimidine-5-carboxamide] | > 1000 | > 1000 | > 1000 |
| CN(C)C(=O)c1ccc(-c2ccc(Nc3cncc(NC(=O)Cc4ccccc4)c3)nc2)cc1 [Example 123, N,N-dimethyl-4-(6-((5-(2-phenylacetamido)pyridin-3-yl)amino)pyridin-3-yl)benzamide] | 10 to 100 | 10 to 100 | 100 to 1000 |
